Biological target: T1, human Kv 1.5 (Homo sapiens, UniProt P22460)
T1 construct: expressed in transfected cells; host or cells: mammalian L-929 cells (mouse fibroblasts)
Assay: block of IKur current in patch clamped L-929 cells expressing human Kv1.5
Type: cell-based
Conditions: patch clamped mammalian L-929 cells stably expressing IKur protein; for inhibition at 0.3 µM: L929, 0.3 μM, read-out: Percentage inhibition of Kv1.5 in L-929 cells at 0.3 μM
Excerpt: Assays to determine the degree of activity of a compound as an IKur inhibitor are well known in the art and are described in references such as J. Gen. Physiol., 101(4):513-543 (April 1993), and Br. J. Pharmacol., 115(2):267-274 (May 1995).
1. Synders, D. J. et al., “A rapidly activating and slowly inactivating potassium channel cloned from human heart: functional analysis after stable mammalian cell culture expression”, J. Gen. Physiol., 101:513-543 (1993).
2. Zhou, Z. et al., “Block of HERG potassium channels by the antihistamine astemizole and its metabolites desmethylastemizole and norastemizole”, J. Cardiovasc. Electrophysiol., 10(6):836-843 (1999).

T1 sequence (P22460 whole entry): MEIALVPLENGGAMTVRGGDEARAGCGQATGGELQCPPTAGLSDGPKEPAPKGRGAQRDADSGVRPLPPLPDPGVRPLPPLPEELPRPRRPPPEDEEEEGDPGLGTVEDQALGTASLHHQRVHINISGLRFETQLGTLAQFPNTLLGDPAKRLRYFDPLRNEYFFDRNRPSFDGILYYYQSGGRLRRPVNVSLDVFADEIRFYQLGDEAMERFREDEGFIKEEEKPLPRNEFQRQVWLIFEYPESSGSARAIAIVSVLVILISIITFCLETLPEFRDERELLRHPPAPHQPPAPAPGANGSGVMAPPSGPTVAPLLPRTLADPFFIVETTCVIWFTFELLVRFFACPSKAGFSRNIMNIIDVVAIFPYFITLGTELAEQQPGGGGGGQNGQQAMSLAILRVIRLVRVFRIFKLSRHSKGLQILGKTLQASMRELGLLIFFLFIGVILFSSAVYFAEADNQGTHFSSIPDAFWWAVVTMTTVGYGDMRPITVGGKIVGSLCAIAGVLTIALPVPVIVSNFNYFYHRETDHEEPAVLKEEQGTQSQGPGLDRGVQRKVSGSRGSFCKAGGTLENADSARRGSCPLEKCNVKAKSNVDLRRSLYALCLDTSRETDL

| SMILES | Percentage inhibition of Kv1.5 in L-929 cells at 0.3 μM (0.3 μM) [%] | inhibition at 0.3 µM [%] |
| --- | --- | --- |
| CC(Nc1nnc(-c2cncc(S(N)(=O)=O)c2)n2ccc(-c3ccccc3)c12)c1ccccn1 (single isomer, unassigned) [Example 5, 5-(8-phenyl-1-(1-(pyridin-2-yl)ethylamino)pyrrolo[1,2-d][1,2,4]triazin-4-yl)pyridine-3-sulfonamide] | 88 |  |
| CC(Nc1nnc(-c2cncc(S(N)(=O)=O)c2)n2ccc(-c3ccccc3)c12)c1ccccn1 (single isomer, unassigned) [Example 6, 5-(8-phenyl-1-(1-(pyridin-2-yl)ethylamino)pyrrolo[1,2-d][1,2,4]triazin-4-yl)pyridine-3-sulfonamide] |  | 92 |
| NS(=O)(=O)c1cncc(-c2nnc(NCc3ccccc3)c3c(-c4ccccc4)ccn23)c1 [Example 1, 5-(1-(Benzylamino)-8-phenylpyrrolo[1,2-d][1,2,4]triazin-4-yl)pyridine-3-sulfonamide] |  | 89 |
| NS(=O)(=O)c1cncc(-c2nnc(Nc3cccc(F)c3)c3c(-c4ccccc4)ccn23)c1 [Example 2, 5-(1-(3-Fluorophenylamino)-8-phenylpyrrolo[1,2-d][1,2,4]triazin-4-yl)pyridine-3-sulfonamide] |  | 91 |
| NS(=O)(=O)c1cc(-c2nnc(NCc3ccccn3)c3c(-c4ccccc4)ccn23)cnc1C(F)F [Example 3, 2-(Difluoromethyl)-5-(8-phenyl-1-(pyridin-2-ylmethylamino)pyrrolo[1,2-d][1,2,4]triazin-4-yl)pyridine-3-sulfonamide] |  | 95 |
| NS(=O)(=O)c1cncc(-c2nnc(NCc3ccccn3)c3c(-c4ccccc4)ccn23)c1 [Example 4, 5-(8-phenyl-1-(pyridin-2-ylmethylamino)pyrrolo[1,2-d][1,2,4]triazin-4-yl)pyridine-3-sulfonamide] |  | 86 |
| NS(=O)(=O)c1cncc(-c2nnc(NCc3ncccc3F)c3c(-c4ccccc4)ccn23)c1 [Example 7, 5-(1-(((3-fluoropyridin-2-yl)methyl)amino)-8-phenylpyrrolo[1,2-d][1,2,4]triazin-4-yl)pyridine-3-sulfonamide] |  | 98 |
| NS(=O)(=O)c1cncc(-c2nnc(NCc3ccccc3F)c3c(-c4ccccc4)ccn23)c1 [Example 8, 5-(1-(2-fluorobenzylamino)-8-phenylpyrrolo[1,2-d][1,2,4]triazin-4-yl)pyridine-3-sulfonamide] |  | 93 |
| NS(=O)(=O)c1cncc(-c2nnc(NCc3c(F)cccc3F)c3c(-c4ccccc4)ccn23)c1 [Example 9, 5-(1-(2,6-difluorobenzylamino)-8-phenylpyrrolo[1,2-d][1,2,4]triazin-4-yl)pyridine-3-sulfonamide] |  | 92 |

From patent US9403834B2, “Pyrrolotriazines as potassium ion channel inhibitors” (BRISTOL-MYERS SQUIBB COMPANY, priority 2013, dated 2016)
